According to article PMC12876990, “Targeting secreted PLA2 interactions with EGFR and vimentin to arrest prostate tumour growth” (Cell Death & Disease, 2025):
“Also recorded” adds a separate entry of the source. Square brackets hold non-standard residues; d marks the D form. Peptide text beside a SMILES is read from it. 2Nal = N[C@@H](Cc1ccc2ccccc2c1)C(=O)O

Legend:
[1] = Pharmacokinetics of tritiated cF and c2 in BALB/c mice; assay type: in vivo
Method: All animal studies were performed according to the guidelines for the ethical use of animals published by the National Health and Medical Research Council of Australia. Mouse pharmacokinetic studies were conducted with approval from the Garvan Institute Animal Ethics Committee (approval #02/21). cF and c2 were radioactively labelled with tritium by catalytic saturation of peptide analogues containing dehydroleucine (Sibtech Inc.), yielding high specific activity (50–60 Ci/mmol) peptides. Their identity was confirmed by three separate analytical methods prior to delivery. Mice (BALB/c, n = 4 per timepoint) were administered a single dose of peptide by the routes and times indicated. Animals were then exsanguinated by cardiac puncture under halothane anaesthesia followed by cervical dislocation. Tissues and plasma were stored at −80 °C prior to analysis. For plasma, a known volume of plasma was added to liquid scintillant (Ultima Gold, Perkin Elmer). For tissues, a known amount of tissue (50–100 mg) was incubated in NaOH (1 mL, 1 M) overnight at room temperature. The solutions were then bleached with disodium EDTA (100 µl, 0.1%) and hydrogen peroxide (300 µl, 30%) and incubated at 50 °C for one hour. The peptide content of plasma and tissues was determined by liquid scintillation counting. The stability of the peptides following administration to animals was evaluated by thin-layer chromatography of tissue-extracted peptide relative to peptide prior to injection (Fig. S2c).

[2] = 28-day repeated dose oral toxicity study (OECD 407): overall toxicity, mortality; assay type: in vivo, male Sprague Dawley rats
Method: Potential toxicity of c2 was evaluated with a 28-day repeated dose oral toxicity study (OECD 407) in male Sprague Dawley rats, with a recovery period. Animals (n = 10 per group) were treated with vehicle (1% carboxymethylcellulose in distilled water), c2 at 1 mg/kg or at 20 mg/kg every three days for 28 days. Animals were sacrificed on day 29 and blood and tissues were taken for further analysis. Two recovery groups treated concomitantly with the main study (n = 5, vehicle of 20 mg/kg c2) were monitored for a further 14-day treatment-free period, sacrificed on Day 43 and blood and tissues taken for analysis. (Data available on request).
2.8.4. Repeated dose toxicity
Repeated do se toxicity is the adver se effects o ccurring within a short time of several repeated administrations of a test item over a defined period.
The test item is the article that is the subject of the study.
Vehicle is any agent, which serves as a carrier used to mix, disperse, or solubilize the test item or reference item to facilitate the administration/application to the test system.
2.9. Principle of the test method
The test item suspension or vehicle was administered orally by gavage every three days for 28 days to three groups of male rat s at two do se le vels (low - 1 and high - 20 mg/kg) to as ses s toxicity. Two vehicle control groups were dosed with the vehicle. A recovery group was included to investigate reversibility of any toxicity and persistence or delayed occurrence of […]
Daily clinical obs ervations were performed. Weekly detailed clinical examination s were performed on all animals. Functional observations were performed in the last week of treatment.
Body weights were monitored weekly throughout the study. Feed intake was measured weekly.
Gross necropsy was conducted in all animals th at died or were killed during the study. Full blood analysis and detailed histopathology was performed on conclusion of the main study.
All tissues and carcasse s were placed in 10% formalin and retained for a period of 6 months. […]
3.1. Regulatory references
The study was conducted according to the OECD Guidelines for the Testing of Chemical s, No.407 - Repeated Dose 28-Day Oral Toxicity Study in Rodents. [Adopted: 3 October […]
3.1.2. Good Laboratory Practice
This study was conducted in accordance with the Organization of Economic Cooperation and Development (OECD) Principles of Good Laboratory Practice (as revised in 1997) ENV/MC/CHEM (98) 17. The study was performed in accordance with the agreed protocol and with ICP Firefly Pty Ltd Standard Operating Procedures (SOPs).
3.1.3. Animal Welfare Act compliance
The experimental protocol was approved by the ICP Firefly Animal Ethics Committee, and […]
Regulation 2005 and the Code of Practice under t hat Regulation. It was granted Approval […]
The Sponsor provided a Certificate of Analysis for the test item, which is attached a s an appendix to the report (Appendix A Certificate of Analysis). […]
3.4.1. Justification for species selection
The Specific Pathogen Free [SPF] male Sprague Dawley rat was selected since it is widely accepted and recognised by international guidelines as an appropriate experimental model […]
3.4.2. Species, strain source and housing
A total of 40 young adult Spe cific Pathogen Fr ee Mal e Sprague D awley rats weighing between 189 and 212 grams the b eginning of the experiment were used for the study. The animals were obtained from Animal Resources Ce ntre (ARC), WA, Australia. […]

SMILES: CC(C)C[C@@H]1NC(=O)[C@H](Cc2ccc3ccccc3c2)NC(=O)[C@H](CCCNC(=N)N)NC(=O)[C@H](Cc2ccc3ccccc3c2)NC(=O)[C@H](CO)NC1=O [c2, cyclo-((2-Nal)-Leu-Ser-(2-Nal)-Arg)] (cyclo([2Nal]LS[2Nal]R))
- oral bioavailability (in words) ([1]; sc and po administration): orally bioavailable
- oral bioavailability relative to sc delivery (AUC analysis) ([1]; tritiated peptide 5 mg/kg, po vs sc, at 16 hours): ~ 10%
- effective concentration relative to the maximum observed dosage with no toxicity ([2]; 0.1 mg/kg vs 40 mg/kg): 400 times
- urinalysis and blood analysis ([2]; 1 and 20 mg/kg): no test item related effects
- toxicity (all measures) ([2]; 1 and 20 mg/kg po every three days over 28 days): no observable toxicity; also recorded: no toxic effects
- mortality related to the treatment ([2]; 1 and 20 mg/kg, main and recovery study): No mortalities
- NOAEL at 672 h ([2]; male, Sprague Dawley, rat, in vivo, po, Appendix 1, read-out: maximum observed dosage with no toxicity): 40 mg/kg
